Tested on: homocysteine concentration in the blood
Experiment: not given
Conditions: 400 μg/day; cited from earlier work

Compound | effect on homocysteine concentration in the blood
Nc1nc2ncc(CNc3ccc(C(=O)N[C@@H](CCC(=O)O)C(=O)O)cc3)nc2c(=O)[nH]1 [folic acid] | decrease the levels of homocysteine concentration in the blood

Tested on: not given
Experiment: not given
Conditions: supplements before conception; cited from earlier work

Compound | reduction of the risks of neurological defects in the future child [%]
Nc1nc2ncc(CNc3ccc(C(=O)N[C@@H](CCC(=O)O)C(=O)O)cc3)nc2c(=O)[nH]1 [folic acid] | 50

Tested on: Bifidobacterium animalis PTA-9175
Experiment: Determination of resistance patterns (Kirby-Bauer, inhibition halos)
Type: cell-based
Conditions: sensidiscs on Mueller-Hinton agar; diameter 0 = resistant
Protocol: Method: To determine the phenotype of resistance to antibiotics the Kirby-Bauer method was used. From a young culture of 18 to 24 hours several colonies were taken with a sterile swab and inoculated into a test tube with a sterile, isotonic saline solution. The inoculum was visually adjusted to a turbidity of 0.5 on the McFarland scale. Within 15 minutes the inoculum was adjusted, a sterile swab was introduced into the suspension and when removing it the excess liquid was eliminated. Agar Mueller-Hinton plates were inoculated, leaving no free zone, sliding the swab across the surface of the agar 3 times, rotating the plate 60° each time and finally passing it over the periphery of the agar to achieve a uniform seed.
The plates were left to dry for 3 to 5 min and the sensidiscs of the following antibiotics were placed: norfloxacin, cephalothin, azithromycin, tobramycin, ampicillin/sulbactam, erythromycin cefatoxim, nalidixic acid, ceftazidime, aztreonam, vancomycin, cefuroxime, rifampicyn, nitrofurantoin, oxacylin, nefilmicin amikacin, kanamycin ticarcillin, clindamycin, ampicillin.
All strains with an inhibition diameter of 0 are resistant to the tested antibiotic.

Compound | Inhibition halo (mm)
C[C@H]1[C@H](NC(=O)/C(=N\OC(C)(C)C(=O)O)c2csc(N)n2)C(=O)N1S(=O)(=O)O [Aztreonam] | 0
CC1(C)S[C@@H]2[C@H](NC(=O)[C@H](N)c3ccccc3)C(=O)N2[C@H]1C(=O)O [Ampicillin] | 35
CCC[C@@H]1C[C@@H](C(=O)N[C@@H]([C@H]2O[C@H](SC)[C@H](O)[C@@H](O)[C@H]2O)[C@H](C)Cl)N(C)C1 [Clindamycin] | 43
CN[C@H](CC(C)C)C(=O)N[C@H]1C(=O)N[C@@H](CC(N)=O)C(=O)N[C@H]2C(=O)N[C@H]3C(=O)N[C@H](C(=O)N[C@H](C(=O)O)c4cc(O)cc(O)c4-c4cc3ccc4O)[C@H](O)c3ccc(c(Cl)c3)Oc3cc2cc(c3O[C@@H]2O[C@H](CO)[C@@H](O)[C@H](O)[C@H]2O[C@H]2C[C@](C)(N)[C@H](O)[C@H](C)O2)Oc2ccc(cc2Cl)[C@H]1O [Vancomycin] | 27
CC1(C)S[C@@H]2[C@H](NC(=O)[C@H](C(=O)O)c3ccsc3)C(=O)N2[C@H]1C(=O)O [Ticarcillin] | 40
CC[C@H]1OC(=O)[C@H](C)[C@@H](O[C@H]2C[C@@](C)(OC)[C@@H](O)[C@H](C)O2)[C@H](C)[C@@H](O[C@@H]2O[C@H](C)C[C@H](N(C)C)[C@H]2O)[C@](C)(O)C[C@@H](C)CN(C)[C@H](C)[C@@H](O)[C@]1(C)O [Azithromycin] | 30
CC[C@H]1OC(=O)[C@H](C)[C@@H](O[C@H]2C[C@@](C)(OC)[C@@H](O)[C@H](C)O2)[C@H](C)[C@@H](O[C@@H]2O[C@H](C)C[C@H](N(C)C)[C@H]2O)[C@](C)(O)C[C@@H](C)C(=O)[C@H](C)[C@@H](O)[C@]1(C)O [Erythromycin] | 40
Ampicillin/Sulbactam | 30
CC(=O)OCC1=C(C(=O)O)N2C(=O)[C@@H](NC(=O)Cc3cccs3)[C@H]2SC1 [Cephalothin] | 24
Cc1onc(-c2ccccc2)c1C(=O)N[C@@H]1C(=O)N2[C@@H]1SC(C)(C)[C@@H]2C(=O)O [Oxacylin] | 0
NCC[C@H](O)C(=O)N[C@@H]1C[C@H](N)[C@@H](O[C@H]2O[C@H](CN)[C@@H](O)[C@H](O)[C@H]2O)[C@H](O)[C@H]1O[C@H]1O[C@H](CO)[C@@H](O)[C@H](N)[C@H]1O [Amikacin] | 0
CO/N=C(\C(=O)N[C@@H]1C(=O)N2C(C(=O)O)=C(COC(N)=O)CS[C@H]12)c1ccco1 [Cefuroxime] | 25
NC[C@H]1O[C@H](O[C@H]2[C@H](O)[C@@H](O[C@H]3O[C@H](CO)[C@@H](O)[C@H](N)[C@H]3O)[C@H](N)C[C@@H]2N)[C@H](O)[C@@H](O)[C@@H]1O [Kanamycin] | 0
CC1COc2c(N3CCN(C)CC3)c(F)cc3c(=O)c(C(=O)O)cn1c23 (stereo not drawn) [Ofloxacin] | 12
CCn1cc(C(=O)O)c(=O)c2ccc(C)nc21 [Nalidixic acid] | 0
Rifampicyn | 2
CCn1cc(C(=O)O)c(=O)c2cc(F)c(N3CCNCC3)cc21 [Norfloxacin] | 0
CC(C)(O/N=C(\C(=O)N[C@@H]1C(=O)N2C(C(=O)[O-])=C(C[n+]3ccccc3)CS[C@H]12)c1csc(N)n1)C(=O)O [Ceftazidime] | 38
NC[C@H]1O[C@H](O[C@H]2[C@H](O)[C@@H](O[C@H]3O[C@H](CO)[C@@H](O)[C@H](N)[C@H]3O)[C@H](N)C[C@@H]2N)[C@H](N)C[C@@H]1O [Tobramycin] | 0
O=C1CN(/N=C/c2ccc([N+](=O)[O-])o2)C(=O)N1 [Nitrofurantoin] | 40
Nefilmicin | 0
CO/N=C(\C(=O)N[C@@H]1C(=O)N2C(C(=O)O)=C(COC(C)=O)CS[C@H]12)c1csc(N)n1 [Cefatoxim] | 40

— patent US20110268842A1 (SIGMA ALIMENTOS, S.A. DE C.V., priority 2008, published 2011)
